Assays:
Experiment in all cases: KINOMEscan competition binding
Details in all cases: compound 1.0 µM
[1] = target: SYK (human) (UniProt P43405)
[2] = target: CAMKK1 (human) (UniProt Q8N5S9)
[3] = tested on: FLT3 (human), P36888 [R834Q]
[4] = target: MTOR (human) (UniProt P42345)
[5] = target: AKT2 (human) (UniProt P31751)
[6] = target: ROCK2 (human) (UniProt O75116)
[7] = tested on: PIK3CA (human), P42336 [Q546K]
[8] = target: JAK1 JH1 catalytic (human) (UniProt P23458)
[9] = target: BLK (human) (UniProt P51451)
BLK (human), sequence (P51451 whole entry, looked up): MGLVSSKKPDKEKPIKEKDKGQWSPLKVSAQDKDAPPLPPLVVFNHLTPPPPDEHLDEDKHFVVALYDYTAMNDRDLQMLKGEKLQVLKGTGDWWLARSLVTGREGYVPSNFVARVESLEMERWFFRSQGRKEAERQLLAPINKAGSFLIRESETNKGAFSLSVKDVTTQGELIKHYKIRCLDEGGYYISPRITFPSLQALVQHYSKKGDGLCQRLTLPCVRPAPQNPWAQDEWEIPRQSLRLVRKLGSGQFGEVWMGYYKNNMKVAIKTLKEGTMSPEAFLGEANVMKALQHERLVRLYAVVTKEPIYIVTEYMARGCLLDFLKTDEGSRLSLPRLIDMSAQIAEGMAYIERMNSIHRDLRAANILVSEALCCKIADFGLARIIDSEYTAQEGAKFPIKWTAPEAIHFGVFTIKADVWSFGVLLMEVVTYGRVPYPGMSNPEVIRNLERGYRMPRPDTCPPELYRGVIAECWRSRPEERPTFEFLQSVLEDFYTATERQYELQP

[10] = target: MAPK8 (human) (UniProt P45983)
MAPK8 (human), sequence (P45983 whole entry, looked up): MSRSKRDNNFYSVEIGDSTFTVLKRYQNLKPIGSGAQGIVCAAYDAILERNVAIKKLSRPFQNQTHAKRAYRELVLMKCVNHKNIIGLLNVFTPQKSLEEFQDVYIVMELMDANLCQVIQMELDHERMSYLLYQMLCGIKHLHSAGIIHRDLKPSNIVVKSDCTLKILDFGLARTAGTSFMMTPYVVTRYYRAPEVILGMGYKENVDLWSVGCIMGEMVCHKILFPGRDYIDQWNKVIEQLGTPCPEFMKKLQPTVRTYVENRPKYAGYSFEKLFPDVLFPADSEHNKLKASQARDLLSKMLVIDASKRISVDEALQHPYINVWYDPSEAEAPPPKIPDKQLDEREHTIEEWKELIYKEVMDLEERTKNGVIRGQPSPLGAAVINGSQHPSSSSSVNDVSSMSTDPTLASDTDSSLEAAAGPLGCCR

[11] = target: MARK3 (human) (UniProt P27448)
[12] = target: PDPK1 (human) (UniProt O15530)
[13] = target: STK11 (human) (UniProt Q15831)
[14] = target: STK39 (human) (UniProt Q9UEW8)
[15] = target: STK10 (human) (UniProt O94804)
[16] = target: ERN1 (human) (UniProt O75460)
[17] = target: CAMK2B (human) (UniProt Q13554)
[18] = tested on: ABL1 (human), P00519 [Y253F]
[19] = target: MARK4 (human) (UniProt Q96L34)
MARK4 (human), sequence (Q96L34 whole entry, looked up): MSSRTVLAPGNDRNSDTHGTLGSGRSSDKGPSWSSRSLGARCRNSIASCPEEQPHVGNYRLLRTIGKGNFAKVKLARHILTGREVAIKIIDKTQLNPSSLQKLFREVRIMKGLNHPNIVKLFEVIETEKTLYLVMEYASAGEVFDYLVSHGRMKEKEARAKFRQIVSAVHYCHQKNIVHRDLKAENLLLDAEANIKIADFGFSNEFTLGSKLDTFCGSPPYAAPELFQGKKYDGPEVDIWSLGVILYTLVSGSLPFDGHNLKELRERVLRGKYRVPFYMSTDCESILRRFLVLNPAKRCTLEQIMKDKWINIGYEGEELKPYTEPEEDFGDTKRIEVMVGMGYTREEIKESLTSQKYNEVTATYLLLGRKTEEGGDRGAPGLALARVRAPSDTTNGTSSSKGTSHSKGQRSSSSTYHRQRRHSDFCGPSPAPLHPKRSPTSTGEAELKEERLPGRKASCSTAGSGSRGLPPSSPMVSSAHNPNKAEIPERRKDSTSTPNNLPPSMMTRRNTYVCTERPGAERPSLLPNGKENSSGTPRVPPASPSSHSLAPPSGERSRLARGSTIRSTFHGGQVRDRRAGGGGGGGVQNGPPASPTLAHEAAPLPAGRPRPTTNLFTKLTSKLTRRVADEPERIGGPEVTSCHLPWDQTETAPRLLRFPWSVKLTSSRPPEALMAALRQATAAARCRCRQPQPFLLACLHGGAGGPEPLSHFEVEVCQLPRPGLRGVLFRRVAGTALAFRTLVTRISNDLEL

[20] = target: ABL2 (human) (UniProt P42684)
[21] = target: PHKG2 (human) (UniProt P15735)
[22] = target: MAPK15 (human) (UniProt Q8TD08)
MAPK15 (human), sequence (Q8TD08 whole entry, looked up): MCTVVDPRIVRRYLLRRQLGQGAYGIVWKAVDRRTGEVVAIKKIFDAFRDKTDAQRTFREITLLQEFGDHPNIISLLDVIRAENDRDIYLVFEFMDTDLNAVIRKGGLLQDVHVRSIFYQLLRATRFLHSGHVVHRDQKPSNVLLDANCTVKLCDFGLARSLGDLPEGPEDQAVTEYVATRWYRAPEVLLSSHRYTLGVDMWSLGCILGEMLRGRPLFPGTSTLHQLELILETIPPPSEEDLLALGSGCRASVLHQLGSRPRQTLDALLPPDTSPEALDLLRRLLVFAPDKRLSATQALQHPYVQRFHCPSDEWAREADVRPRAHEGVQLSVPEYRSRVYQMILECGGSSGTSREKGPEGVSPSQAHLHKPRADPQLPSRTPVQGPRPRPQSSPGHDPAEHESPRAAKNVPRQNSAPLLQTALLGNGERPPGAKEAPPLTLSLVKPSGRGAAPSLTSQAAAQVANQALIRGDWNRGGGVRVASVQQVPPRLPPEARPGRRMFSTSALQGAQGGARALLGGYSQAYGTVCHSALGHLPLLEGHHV

[23] = target: MAP3K9 (human) (UniProt P80192)
[24] = target: NLK (human) (UniProt Q9UBE8)
[25] = target: TNNI3K (human) (UniProt Q59H18)
TNNI3K (human), sequence (Q59H18 whole entry, looked up): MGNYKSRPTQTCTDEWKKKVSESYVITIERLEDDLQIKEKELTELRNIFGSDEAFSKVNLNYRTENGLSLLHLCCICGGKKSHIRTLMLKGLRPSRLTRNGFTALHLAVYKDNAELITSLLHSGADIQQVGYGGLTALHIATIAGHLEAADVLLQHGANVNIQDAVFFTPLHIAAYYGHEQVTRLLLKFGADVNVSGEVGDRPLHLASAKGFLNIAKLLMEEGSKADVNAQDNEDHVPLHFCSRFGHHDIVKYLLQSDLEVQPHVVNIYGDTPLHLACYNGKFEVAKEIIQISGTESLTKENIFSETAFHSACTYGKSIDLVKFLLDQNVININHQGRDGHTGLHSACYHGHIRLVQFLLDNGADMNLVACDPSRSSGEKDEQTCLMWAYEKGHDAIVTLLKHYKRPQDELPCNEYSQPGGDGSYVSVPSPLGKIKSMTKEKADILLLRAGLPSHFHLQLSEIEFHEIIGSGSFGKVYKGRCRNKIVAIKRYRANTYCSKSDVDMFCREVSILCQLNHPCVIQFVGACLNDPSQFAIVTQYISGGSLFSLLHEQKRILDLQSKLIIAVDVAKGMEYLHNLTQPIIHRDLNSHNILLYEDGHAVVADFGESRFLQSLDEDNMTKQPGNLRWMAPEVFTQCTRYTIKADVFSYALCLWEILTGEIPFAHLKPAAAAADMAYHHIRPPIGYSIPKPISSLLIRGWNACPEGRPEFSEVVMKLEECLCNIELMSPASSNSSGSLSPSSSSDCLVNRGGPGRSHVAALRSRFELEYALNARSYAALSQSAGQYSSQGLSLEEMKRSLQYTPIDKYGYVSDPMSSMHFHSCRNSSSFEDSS

[26] = target: CDKL3 (human) (UniProt Q8IVW4)
[27] = target: MAK (human) (UniProt P20794)
MAK (human), sequence (P20794 whole entry, looked up): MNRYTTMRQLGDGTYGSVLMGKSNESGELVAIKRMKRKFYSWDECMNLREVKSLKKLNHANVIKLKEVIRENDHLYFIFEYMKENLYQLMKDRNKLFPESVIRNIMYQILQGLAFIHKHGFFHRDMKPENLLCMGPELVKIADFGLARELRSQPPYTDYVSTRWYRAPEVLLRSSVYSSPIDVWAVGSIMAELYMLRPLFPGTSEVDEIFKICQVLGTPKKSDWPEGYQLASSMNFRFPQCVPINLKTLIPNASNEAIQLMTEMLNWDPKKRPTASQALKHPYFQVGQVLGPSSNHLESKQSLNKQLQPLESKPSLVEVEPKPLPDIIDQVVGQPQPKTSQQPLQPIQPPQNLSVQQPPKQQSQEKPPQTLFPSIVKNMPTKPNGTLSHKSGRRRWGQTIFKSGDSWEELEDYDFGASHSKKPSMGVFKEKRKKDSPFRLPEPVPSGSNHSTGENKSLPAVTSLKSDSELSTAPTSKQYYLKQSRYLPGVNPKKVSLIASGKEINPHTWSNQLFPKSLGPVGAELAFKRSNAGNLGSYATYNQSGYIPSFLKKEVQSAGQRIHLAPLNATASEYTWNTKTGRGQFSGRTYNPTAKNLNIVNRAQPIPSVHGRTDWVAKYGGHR

[28] = target: PRKCI (human) (UniProt P41743)
PRKCI (human), sequence (P41743 whole entry, looked up): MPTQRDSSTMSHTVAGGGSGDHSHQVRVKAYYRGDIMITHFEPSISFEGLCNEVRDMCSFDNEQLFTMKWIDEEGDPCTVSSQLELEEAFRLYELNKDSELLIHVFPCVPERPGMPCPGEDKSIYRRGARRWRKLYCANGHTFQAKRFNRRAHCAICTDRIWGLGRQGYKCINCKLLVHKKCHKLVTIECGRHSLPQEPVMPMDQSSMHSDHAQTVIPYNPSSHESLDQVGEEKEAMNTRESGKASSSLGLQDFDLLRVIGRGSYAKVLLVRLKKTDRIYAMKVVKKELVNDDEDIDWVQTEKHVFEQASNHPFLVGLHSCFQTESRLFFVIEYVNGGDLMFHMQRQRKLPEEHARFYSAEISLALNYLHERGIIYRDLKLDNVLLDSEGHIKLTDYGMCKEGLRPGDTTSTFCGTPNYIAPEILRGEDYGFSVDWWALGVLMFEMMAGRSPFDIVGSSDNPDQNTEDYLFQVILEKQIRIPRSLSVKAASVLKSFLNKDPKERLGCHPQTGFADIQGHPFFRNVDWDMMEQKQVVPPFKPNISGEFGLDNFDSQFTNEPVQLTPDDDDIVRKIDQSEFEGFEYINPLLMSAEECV

[29] = target: CSK (human) (UniProt P41240)
[30] = target: CSNK1G1 (human) (UniProt Q9HCP0)
[31] = target: ROCK1 (human) (UniProt Q13464)
[32] = target: PRKAA2 (human) (UniProt P54646)
[33] = tested on: KIT (human), P10721 [V559D]
[34] = target: RPS6KA4 KD1 (human) (UniProt O75676)
[35] = target: RPS6KB1 (human) (UniProt P23443)
[36] = tested on: KIT (human), P10721 [V559D/V654A]
[37] = target: HCK (human) (UniProt P08631)
[38] = target: HIPK4 (human) (UniProt Q8NE63)
[39] = target: PIK3CB (human) (UniProt P42338)
[40] = target: DAPK2 (human) (UniProt Q9UIK4)
[41] = target: MAPK9 (human) (UniProt P45984)
[42] = target: ALK (human) (UniProt Q9UM73)
[43] = target: CDKL2 (human) (UniProt Q92772)

CAMKK1 (human), sequence (Q8N5S9 whole entry, looked up): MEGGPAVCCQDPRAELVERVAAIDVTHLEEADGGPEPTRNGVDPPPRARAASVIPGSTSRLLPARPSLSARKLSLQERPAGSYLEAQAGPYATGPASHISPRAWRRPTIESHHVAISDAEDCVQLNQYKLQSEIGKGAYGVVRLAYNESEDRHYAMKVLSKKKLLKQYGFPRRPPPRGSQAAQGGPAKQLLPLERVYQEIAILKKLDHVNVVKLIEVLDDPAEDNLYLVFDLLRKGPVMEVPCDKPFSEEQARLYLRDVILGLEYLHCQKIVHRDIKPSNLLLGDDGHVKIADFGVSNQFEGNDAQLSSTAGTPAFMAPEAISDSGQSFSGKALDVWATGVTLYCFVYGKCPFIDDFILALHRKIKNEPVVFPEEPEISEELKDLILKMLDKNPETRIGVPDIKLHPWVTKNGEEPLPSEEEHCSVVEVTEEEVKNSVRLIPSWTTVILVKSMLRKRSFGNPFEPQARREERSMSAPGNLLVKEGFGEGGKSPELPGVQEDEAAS

`CN(C)C/C=C/C(=O)Nc1cccc(C(=O)Nc2ccc(Nc3nccc(/C(C#N)=C4\Nc5ccccc5S4)n3)cc2)c1` was tested, and the kinase still bound, per cent of control [1] was 85%, the kinase still bound, per cent of control [2] was 100% and the kinase still bound, per cent of control [3] was 100%. For the same compound, the kinase still bound, per cent of control [4] was 100%, the kinase still bound, per cent of control [5] was 100% and the kinase still bound, per cent of control [6] was 100%. For the same compound, the kinase still bound, per cent of control [7] was 100%, the kinase still bound, per cent of control [8] was 100% and the kinase still bound, per cent of control [9] was 100%. The kinase still bound, per cent of control [10] was 0%, the kinase still bound, per cent of control [11] was 100% and the kinase still bound, per cent of control [12] was 100%. It also gave a kinase still bound, per cent of control [13] of 90%, a kinase still bound, per cent of control [14] of 100% and a kinase still bound, per cent of control [15] of 86%. It also gave a kinase still bound, per cent of control [16] of 100%, a kinase still bound, per cent of control [17] of 100% and a kinase still bound, per cent of control [18] of 100%. It also gave a kinase still bound, per cent of control [19] of 100%, a kinase still bound, per cent of control [20] of 100% and a kinase still bound, per cent of control [21] of 100%. The kinase still bound, per cent of control [22] was 76%, the kinase still bound, per cent of control [23] was 100% and the kinase still bound, per cent of control [24] was 100%. It also gave a kinase still bound, per cent of control [25] of 100%, a kinase still bound, per cent of control [26] of 100% and a kinase still bound, per cent of control [27] of 93%. It also gave a kinase still bound, per cent of control [28] of 100%, a kinase still bound, per cent of control [29] of 100% and a kinase still bound, per cent of control [30] of 92%. It also gave a kinase still bound, per cent of control [31] of 100%, a kinase still bound, per cent of control [32] of 100% and a kinase still bound, per cent of control [33] of 11%. It also gave a kinase still bound, per cent of control [34] of 89%, a kinase still bound, per cent of control [35] of 100% and a kinase still bound, per cent of control [36] of 100%. It also gave a kinase still bound, per cent of control [37] of 100%, a kinase still bound, per cent of control [38] of 6% and a kinase still bound, per cent of control [39] of 100%. For the same compound, the kinase still bound, per cent of control [40] was 100%, the kinase still bound, per cent of control [41] was 0.05% and the kinase still bound, per cent of control [42] was 100%. The kinase still bound, per cent of control [43] was 28%.

— the kinase profiling compilation of Christmann-Franck et al. (2016)
